pIC50: −log10 of the molar value. Structures can show the parent of a compound that is named as a salt.
Target: T1, mineralocorticoid receptor (MR) (Homo sapiens, UniProt P08235)
T1 construct: expressed in transfected cells; host or cells: Huh7 (human liver cells)
T1 sequence (P08235 726-964 limits assumed): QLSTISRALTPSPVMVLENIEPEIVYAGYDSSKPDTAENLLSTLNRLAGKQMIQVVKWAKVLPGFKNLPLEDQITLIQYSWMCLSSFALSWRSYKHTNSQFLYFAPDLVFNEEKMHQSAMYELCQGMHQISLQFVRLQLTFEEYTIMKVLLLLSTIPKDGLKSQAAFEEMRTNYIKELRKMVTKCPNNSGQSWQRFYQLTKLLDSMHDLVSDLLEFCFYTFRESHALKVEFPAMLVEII
Assay: Cell-based Gal4 response element-controlled luciferase reporter assay (MR antagonism)
Settings: Huh7 human liver cells transfected with Gal4 DBD-MR LBD fusion and luciferase reporter; block of agonist-induced activation; overnight incubation
Excerpt: Method 1: Cell-based Gal4 Response Element-controlled Luciferase Reporter Assay
An in vitro assay can be used to evaluate mineralocorticoid receptor (MR) antagonism by a test compound. […] An agonist of the receptor can bind to and activate the receptor LBD, which activate the expression of the Gal4 response element containing luciferase reporter gene. Antagonists can compete for binding to the receptor LBDs and decrease the transcription activity of the reporter gene. Measurement of luciferase activity allows quantitative determinations of the reporter transcription in the presence of either agonists or agonists and antagonists in combination. β-galactosidase activity, which is unaffected by ligand, is used to normalize the transfection efficiency in the cell population.
Huh7 cells were plated in RPMI1640+10% fetal bovine serum (Invitrogen Corporation, San Diego, Calif.), at 10,000 cells per well in 96-well tissue culture dishes for approximately 24 hours. Cells were then transfected using FuGENE™ 6 Transfection Reagent according to manufacturers' instructions (Roche Molecular Biochemicals, Indianapolis, Ind.). Approximately 20 hours after transfection, media were removed. Cells were washed once with PBS and treated (n=6/group) with agonist for each receptor (all chemicals from Sigma, St. Louis, Mo.), and with compounds. Agonist concentrations represent 70-80% of full activation of each receptor.
Compounds were dissolved in DMSO at 10 mM and diluted to final concentrations in phenol red-free media that contained 10% charcoal- and dextran-stripped serum (Life Technologies, Gathersburg, Md.). Following overnight incubation (18-20 hours) with compounds, the medium was removed and replaced with 100 μL per well of PBS and 100 μL of Steady-Glo™ lysis buffer with luciferase substrate (Promega Corporation, Madison, Wis.). After a 30-minute incubation to completely lyse the cells, 100 μL of the lysate was transferred to a black, Dynatech Microfluor assay plates (Dynex Corporation, Chantilly, Va.) to measure luciferase activity. The plate was sealed with TopSeal self-adhesive film, dark-adapted for 5 minutes, then counted in a TopCount Plate Reader (Packard Instrument Company, Meriden, Conn.) in single photon counting mode. The remaining lysate was used for determination of β-galactosidase activity. In a clear 96-well assay plate, 100 μL of cell lysate was added to 100 μL β-galactosidase assay buffer per well. The assay buffer consisted of 60 mM Na2HPO4, 40 mM NaH2PO4, 10 mM KCl, 1 mM MgSO4, 50 mM β-mercaptoethanol, and 2.5 mg/mL ONPG, the latter two reagents were added just prior to assay (all chemicals from Sigma). The reaction was allowed to proceed until a distinct yellow color developed. Reactions were stopped by the addition of 100 μL per well 1 M Na2CO3 and plates were read at 420 nm in Victor-2 (Perkin Elmer Life Sciences, Boston, Mass.). Values (relative luciferase activity) for each sample were expressed as a ratio of luciferase activity to OD420β-galactosidase activity measured in arbitrary units for each well. […] “b” is the slope, “c” is the IC50 or EC50. “x” is the concentration of the compound and “y” the activity at that concentration.

SMILES	pIC50
Cc1cc(N2N=C3c4ccc(C(=O)O)cc4CC[C@H]3[C@H]2c2ccc(F)cc2)ccc1C#N [Example 8, (3S,3aS)-2-(4-cyano-3-methylphenyl)-3-(4-fluorophenyl)-3,3a,4,5-tetrahydro-2H-benzo[g]indazole-7-carboxylic acid]	5.56
Cc1cc(N2N=C3c4ccc(O)cc4CCC3C2c2ccc(F)cc2)ccc1C#N (stereo not shown) [Example 80]	7.31
N#Cc1ccc(N2N=C3c4ccc(C(=O)O)cc4CC[C@@H]3[C@@H]2c2ccco2)cc1Cl [Example 44, (3R,3aR)-2-(3-chloro-4-cyanophenyl)-3-(2-furyl)-3,3a,4,5-tetrahydro-2H-benzo[g]indazole-7-carboxylic acid]	7.80
CC(C)C1C2COc3cc(C(=O)O)ccc3C2=NN1c1ccc(C#N)c(Cl)c1 (racemic) [Example 74, 2-(3-chloro-4-cyanophenyl)-3-isopropyl-2,3,3a,4-tetrahydrochromeno[4,3-c]pyrazole-7-carboxylic acid]	6.23
Cc1cc(N2N=C3c4ccc(C(=O)O)cc4OCC3C2C(C)C)ccc1C#N (stereo not shown) [Example 73, 2-(4-cyano-3-methylphenyl)-3-isopropyl-2,3,3a,4-tetrahydrochromeno[4,3-c]pyrazole-7-carboxylic acid]	6.78
N#Cc1ccc(N2N=C3c4ccc(C(=O)NCCO)cc4CC[C@@H]3[C@@H]2C2CCCC2)cc1Cl [Example 115, (3S,3aR)-2-(3-chloro-4-cyanophenyl)-3-cyclopentyl-N-(2-hydroxyethyl)-3,3a,4,5-tetrahydro-2H-benzo[g]indazole-7-carboxamide]	8.52
N#Cc1ccc(N2N=C3c4ccc(O)cc4CCC3C2c2ccc(F)cc2)cc1 (racemic) [Example 89, (±)-4-((3RS,3aRS)-3-(4-fluorophenyl)-7-hydroxy-3,3a,4,5-tetrahydrobenzo[g]indazol-2-yl)benzonitrile]	6.15
N#Cc1ccc(N2N=C3c4ccc(C(=O)O)cc4CCC3C2C2CCCC2)cc1 (racemic) [Example 18, 2-(4-cyanophenyl)-3-cyclopentyl-3,3a,4,5-tetrahydro-2H-benzo[g]indazole-7-carboxylic acid]	7.05
CC(=O)Nc1ccc2c(c1)CCC1C2=NN(c2ccc(C#N)c(Cl)c2)C1C1CCCC1 (stereo not shown) [Example 91, N-(-2-(3-chloro-4-cyanophenyl)-3-cyclopentyl-3,3a,4,5-tetrahydro-2H-benzo[g]indazol-7-yl)acetamide]	8.30
N#Cc1ccc(N2N=C3c4ccc(C(=O)O)cc4CCC3C2C2=CCCC2)cc1Cl (racemic) [Example 42, 2-(3-chloro-4-cyanophenyl)-3-cyclopentenyl-3,3a,4,5-tetrahydro-2H-benzo[g]indazole-7-carboxylic acid]	7.82
N#Cc1ccc(N2N=C3c4ccc(O)cc4CC[C@@H]3[C@@H]2c2ccc(F)cc2)cc1Cl [Example 87, 2-chloro-4-((3R,3aR)-3-(4-fluorophenyl)-7-hydroxy-3,3a,4,5-tetrahydrobenzo[g]indazol-2-yl)benzonitrile]	7.44
Cc1cc(N2N=C3c4ccc(C(=O)O)cc4CCC3C2c2ccc(F)cc2)ccc1C#N (racemic) [Example 6, 2-(4-cyano-3-methylphenyl)-3-(4-fluorophenyl)-3,3a,4,5-tetrahydro-2H-benzo[g]indazole-7-carboxylic acid]	7.09
Cc1cc(N2N=C3c4ccc(C(=O)O)cc4CCC3C2C2CCCC2)ccc1C#N (racemic) [Example 21, 2-(4-cyano-3-methylphenyl)-3-cyclopentyl-3,3a,4,5-tetrahydro-2H-benzo[g]indazole-7-carboxylic acid]	8.40
N#Cc1ccc(N2N=C3c4ccc(C(=O)O)cc4OC[C@H]3[C@H]2C2CCCC2)cc1Cl [Example 66, (3R,3aS)-2-(3-chloro-4-cyanophenyl)-3-cyclopentyl-2,3,3a,4-tetrahydrochromeno[4,3-c]pyrazole-7-carboxylic acid]	5.47
COCc1cc(N2N=C3c4ccc(C(=O)O)cc4CCC3C2C2CCCC2)ccc1C#N (racemic) [Example 28, 2-(4-cyano-3-(methoxymethyl)phenyl)-3-cyclopentyl-3,3a,4,5-tetrahydro-2H-benzo[g] indazole-7-carboxylic acid]	6.82
N#Cc1ccc(N2N=C3c4ccc(C(=O)O)cc4CCC3C2c2ccco2)cc1Cl (racemic) [Example 43, 2-(3-chloro-4-cyanophenyl)-3-(2-furyl)-3,3a,4,5-tetrahydro-2H-benzo[g] indazole-7-carboxylic acid]	7.68
N#Cc1ccc(N2N=C3c4ccc(O)cc4CC[C@@H]3[C@@H]2c2ccc(F)cc2)cc1C(F)(F)F [Example 84, 4-((3R,3aR)-3-(4-fluorophenyl)-7-hydroxy-3,3a,4,5-tetrahydrobenzo[g]indazol-2-yl)-2-(trifluoromethyl)benzonitrile]	6.95
N#Cc1ccc(N2N=C3c4ccc(C(=O)O)cc4OCC3C2C2CCCC2)cc1 (racemic) [Example 70, 2-(4-cyanophenyl)-3-cyclopentyl-2,3,3a,4-tetrahydrochromeno[4,3-c]pyrazole-7-carboxylic acid]	6.04
N#Cc1ccc(N2N=C3c4ccc(C(=O)O)cc4CC[C@H]3[C@H]2c2ccoc2)cc1Cl [Example 48, (3S,3aS)-2-(3-chloro-4-cyanophenyl)-3-(3-furyl)-3,3a,4,5-tetrahydro-2H-benzo[g]indazole-7-carboxylic acid]	< 6.00
N#Cc1ccc(N2N=C3c4ccc(C(=O)O)cc4CCC3C2c2ccno2)cc1 (racemic) [Example 52, 2-(4-cyanophenyl)-3-isoxazol-5-yl-3,3a,4,5-tetrahydro-2H-benzo[g]indazole-7-carboxylic acid]	5.30
C[S+]([O-])CCNC(=O)c1ccc2c(c1)CC[C@@H]1C2=NN(c2ccc(C#N)c(Cl)c2)[C@H]1c1ccc(F)cc1 (mixture of isomers) [Example 98, (±)-(3RS,3aSR)-2-(3-chloro-4-cyanophenyl)-3-(4-fluorophenyl)-N-(2-(methylsulfinyl)ethyl)-3,3a,4,5-tetrahydro-2H-benzo[g]indazole-7-carboxamide]	7.89
CN(C)Cc1cc(N2N=C3c4ccc(C(=O)O)cc4CCC3C2C2CCCC2)ccc1C#N (racemic) [Example 29, 2-(4-cyano-3-((dimethylamino)methyl)phenyl)-3-cyclopentyl-3,3a,4,5-tetrahydro-2H-benzo[g]indazole-7-carboxylic acid trifluoroacetate]	< 6.00
N#Cc1ccc(N2N=C3c4ccc(O)cc4CC[C@H]3[C@H]2c2ccc(F)cc2)cc1C(F)(F)F [Example 85, 4-((3S,3aS)-3-(4-fluorophenyl)-7-hydroxy-3,3a,4,5-tetrahydrobenzo[g]indazol-2-yl)-2-(trifluoromethyl)benzonitrile]	< 6.00
N#Cc1ccc(N2N=C3c4ccc(C(=O)NCCCCC(=O)O)cc4CC[C@@H]3[C@@H]2c2ccc(F)cc2)cc1Cl (racemic) [Example 104, (±)-5-((3RS,3aRS)-2-(3-chloro-4-cyanophenyl)-3-(4-fluorophenyl)-3,3a,4,5-tetrahydro-2H-benzo[g]indazole-7-carboxamido)pentanoic acid]	6.91
Cc1cc(N2N=C3c4ccc(O)cc4CC[C@H]3[C@H]2c2ccc(F)cc2)ccc1C#N [Example 82, 4-((3S,3aS)-3-(4-fluorophenyl)-7-hydroxy-3,3a,4,5-tetrahydrobenzo[g]indazol-2-yl)-2-methylbenzonitrile]	< 6.00

— US7781428B2 (Pfizer Inc., priority 2006, dated 2010)
